From patent US12702667B2, “Focal adhesion kinase inhibitor as a therapeutic agent in diabetes” (University of Pittsburgh—Of the Commonwealth System of …, priority 2017, dated 2026)
Entries after “also recorded” stand apart in the source; their conditions may differ.

Key:
[1] = test system: pancreatic acinar cells; assay: Acinar lineage tracing (tomato-red label, immunofluorescence) in E1aCreERT2;R26-CAG^Tomato mice treated with FAKi; assay type: in vivo
Text: Rosa26^CAGTomato (B6.Cg-Gt(Rosa)26Sortm9(CAG-tdTomato)Hze) (Madisen et al., 2010), FAK^fl/fl (Cai et al., 2012), and wild type C57bl/6 mice were purchased from The Jackson Laboratory (Bar Harbor, ME). PdxCre (Criscimanna et al., 2011; Hingorani et al., 2003) mice were obtained from the Mouse Models of Human Cancer Consortium. The E1aCreERT2 strain (Criscimanna et al., 2014; Criscimanna et al., 2011) was generated as previously described (Ji, B. et al., Robust acinar cell transgene expression of CreErT via BAC recombineering, Genesis, 46, 390-395et al (2008)). The FAK-floxed strain (B6; 129X1-Ptk2tm1Lfr/Mmucd) was obtained from the Mutant Mouse Regional Resource Centers (MMRRC).
Immunofluorescence Analysis: Tissue processing, immunostaining, and quantification analysis were performed as previously described (Criscimanna et al., 2011; incorporated by reference in its entirety herein). Imaging was performed using either ZEISS Axiolmager.Z1 or ZEISS LSM 710 microscopes.
Tamoxifen treatment: E1aCreERT;R26-CAG^Tomato mice were injected intraperitoneally with 2 mg tamoxifen on two consecutive days.
(§1) FAKi treatment: FAKi (PF562271; 50 mg/kg) was given orally to mice twice a day for 3 weeks.
Cre-recombinase activity was specifically targeted to the pancreatic acinar cells and their potential progenies. […] The mouse strains are E1aCreERT2;R26-CAG^Tomato, created by crossing the E1aCreERT2 into R26^Tomato mice. Pancreatic acinar cells are exclusively tomato-positive. Mice were treated with PF562271 FAKi. The indicated area in FIG. 2B highlights tomato-negative endocrine islet of Langerhans.

[2] = test system: STZ-treated E1aCreERT2; R26^Tomato mice; assay: Induced diabetes mouse model (streptozotocin), blood glucose and islet immunostaining after FAKi treatment; assay type: in vivo; conditions: for acinar-derived, insulin-producing cells among beta cells that survived STZ treatment: 7 weeks after STZ treatment and 3 weeks after FAKi treatment
Experimental: as §1
E1aCreERT2; R26^Tomato mice were treated with streptozotocin (STZ), a widely used compound that kills β-cells and, thus, induces diabetes in mice. […] Thus, in the DMSO-treated cohort, recovery was detected in 3/10 mice. […]
The mice were treated for two additional weeks following blood glucose normalization. The bar embedded in the graph of FIG. 5 indicates the duration of FAKi treatment. […] FAKi (50 mg/kg) was given orally to mice twice a day for 3 weeks.

## CN(c1ncccc1CNc1nc(Nc2ccc3c(c2)CC(=O)N3)ncc1C(F)(F)F)S(C)(=O)=O.O=S(=O)(O)c1ccccc1 [PF562271]
[1]; 50 mg/kg orally twice a day for three weeks
  conversion of acinar cells into insulin-producing cells (tomato-red labeled insulin-expressing cells): induces conversion of acinar cells into insulin-producing cells
[1]; FAKi treated
  Glut2 expression of the acinar-derived insulin-positive cells: also expressed Glut2
[1]; treatment for three weeks
  amylase expression of the acinar-derived insulin-positive cells: no longer express amylase; also recorded: no longer expressed amylase
  location of the acinar-derived insulin-positive cells: embedded within preexisting islets
[2]
  acinar-derived, insulin-producing cells among beta cells that survived STZ treatment: could be detected among pre-existing beta-cells
[2]; listed as FAKi
  acinar-derived, insulin-producing cells among beta cells that survived STZ treatment: could be detected among pre-existing beta cells
[2]; STZ-treated mice, 50 mg/kg orally twice a day for 3 weeks, DMSO cohort recovery 3/10
  mice whose blood glucose levels decreased to normal levels: 9/10
[2]; STZ-treated mice, after 3 weeks of 50 mg/kg orally twice a day
  blood glucose after FAKi treatment ceased: remained at normal levels up to a month
[2]; STZ-treated mice, one week after FAKi treatment (mice treated for 3 weeks)
  blood glucose: decrease in blood glucose to normal levels
